{
  "source": "PubChem BioAssay (NCI)",
  "assay_in_all_cases": "inhibition of tumour cell growth, NCI panel, 48 h",
  "key": {"786-0 renal": {"system": "786-0 renal"}, "A498 renal": {"system": "A498 renal"}, "A549 NSCLC": {"system": "A549 NSCLC"}, "ACHN renal": {"system": "ACHN renal"}, "BT-549 breast": {"system": "BT-549 breast"}, "CAKI-1 renal": {"system": "CAKI-1 renal"}, "CCRF-CEM leukemia": {"system": "CCRF-CEM leukemia"}, "COLO 205 colon": {"system": "COLO 205 colon"}, "DU-145 prostate": {"system": "DU-145 prostate"}, "EKVX NSCLC": {"system": "EKVX NSCLC"}, "HCC-2998 colon": {"system": "HCC-2998 colon"}, "HCT-116 colon": {"system": "HCT-116 colon"}, "HCT-15 colon": {"system": "HCT-15 colon"}, "HL-60(TB) leukemia": {"system": "HL-60(TB) leukemia"}, "HOP-62 NSCLC": {"system": "HOP-62 NSCLC"}, "HOP-92 NSCLC": {"system": "HOP-92 NSCLC"}, "HS 578T breast": {"system": "HS 578T breast"}, "HT29 colon": {"system": "HT29 colon"}, "IGROV1 ovarian": {"system": "IGROV1 ovarian"}, "K-562 leukemia": {"system": "K-562 leukemia"}, "KM12 colon": {"system": "KM12 colon"}, "LOX IMVI melanoma": {"system": "LOX IMVI melanoma"}, "M14 melanoma": {"system": "M14 melanoma"}, "MALME-3M melanoma": {"system": "MALME-3M melanoma"}, "MDA-MB-231 breast": {"system": "MDA-MB-231 breast"}, "MDA-MB-435": {"system": "MDA-MB-435"}, "MDA-N": {"system": "MDA-N"}, "MOLT-4 leukemia": {"system": "MOLT-4 leukemia"}, "NCI-H226 lung": {"system": "NCI-H226 lung"}, "NCI-H23 lung": {"system": "NCI-H23 lung"}, "NCI-H460 lung": {"system": "NCI-H460 lung"}, "NCI-H522 lung": {"system": "NCI-H522 lung"}, "NCI/ADR-RES ovarian": {"system": "NCI/ADR-RES ovarian"}, "OVCAR-5 ovarian": {"system": "OVCAR-5 ovarian"}, "OVCAR-8 ovarian": {"system": "OVCAR-8 ovarian"}, "PC-3 prostate": {"system": "PC-3 prostate"}, "RPMI-8226 leukemia": {"system": "RPMI-8226 leukemia"}, "SF-268 CNS": {"system": "SF-268 CNS"}, "SF-295 CNS": {"system": "SF-295 CNS"}, "SF-539 CNS": {"system": "SF-539 CNS"}, "SK-MEL-2 melanoma": {"system": "SK-MEL-2 melanoma"}, "SK-MEL-28 melanoma": {"system": "SK-MEL-28 melanoma"}, "SK-MEL-5 melanoma": {"system": "SK-MEL-5 melanoma"}, "SK-OV-3 ovarian": {"system": "SK-OV-3 ovarian"}, "SN12C renal": {"system": "SN12C renal"}, "SNB-19 CNS": {"system": "SNB-19 CNS"}, "SNB-75 CNS": {"system": "SNB-75 CNS"}, "SR leukemia": {"system": "SR leukemia"}, "SW-620 colon": {"system": "SW-620 colon"}, "T-47D breast": {"system": "T-47D breast"}, "TK-10 renal": {"system": "TK-10 renal"}, "U251 CNS": {"system": "U251 CNS"}, "UACC-257 melanoma": {"system": "UACC-257 melanoma"}, "UACC-62 melanoma": {"system": "UACC-62 melanoma"}, "UO-31 renal": {"system": "UO-31 renal"}},
  "note": "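Tested at 5 concentrations; 48 h exposure; 96-well plates; endpoints linearly interpolated, else capped at highest concentration. TGI denotes the concentration required for complete inhibition of growth.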",
  "data": [
    {"compound": "C=C1CC(Cn2cc(C)c(=O)[nH]c2=O)(c2ccc(Cl)cc2)OC1=O", "note": "(stereo not given)", "values": [
      {"measurement": "TGI", "setting": "786-0 renal", "value": 2.99, "unit": "µM"},
      {"measurement": "TGI", "setting": "A498 renal", "value": 22.8, "unit": "µM"},
      {"measurement": "TGI", "setting": "A549 NSCLC", "value": 32.2, "unit": "µM"},
      {"measurement": "TGI", "setting": "ACHN renal", "value": 8, "unit": "µM"},
      {"measurement": "TGI", "setting": "BT-549 breast", "value": 2.86, "unit": "µM"},
      {"measurement": "TGI", "setting": "CAKI-1 renal", "value": 3.93, "unit": "µM"},
      {"measurement": "TGI", "setting": "CCRF-CEM leukemia", "value": 4.01, "unit": "µM"},
      {"measurement": "TGI", "setting": "COLO 205 colon", "value": 2.96, "unit": "µM"},
      {"measurement": "TGI", "setting": "DU-145 prostate", "value": 18.3, "unit": "µM"},
      {"measurement": "TGI", "setting": "EKVX NSCLC", "value": 18.7, "unit": "µM"},
      {"measurement": "TGI", "setting": "HCC-2998 colon", "value": 8.43, "unit": "µM"},
      {"measurement": "TGI", "setting": "HCT-116 colon", "value": 3.29, "unit": "µM"},
      {"measurement": "TGI", "setting": "HCT-15 colon", "value": 2.37, "unit": "µM"},
      {"measurement": "TGI", "setting": "HL-60(TB) leukemia", "value": 3.93, "unit": "µM"},
      {"measurement": "TGI", "setting": "HOP-62 NSCLC", "value": 33, "unit": "µM"},
      {"measurement": "TGI", "setting": "HOP-92 NSCLC", "value": 1.58, "unit": "µM"},
      {"measurement": "TGI", "setting": "HS 578T breast", "value": 25.5, "unit": "µM"},
      {"measurement": "TGI", "setting": "HT29 colon", "value": 3.64, "unit": "µM"},
      {"measurement": "TGI", "setting": "IGROV1 ovarian", "value": 3.41, "unit": "µM"},
      {"measurement": "TGI", "setting": "K-562 leukemia", "value": 21.1, "unit": "µM"},
      {"measurement": "TGI", "setting": "KM12 colon", "value": "> 43", "unit": "µM"},
      {"measurement": "TGI", "setting": "LOX IMVI melanoma", "value": 3.2, "unit": "µM"},
      {"measurement": "TGI", "setting": "M14 melanoma", "value": 2.54, "unit": "µM"},
      {"measurement": "TGI", "setting": "MALME-3M melanoma", "value": 4.89, "unit": "µM"},
      {"measurement": "TGI", "setting": "MDA-MB-231 breast", "value": 9.82, "unit": "µM"},
      {"measurement": "TGI", "setting": "MDA-MB-435", "value": 15.1, "unit": "µM"},
      {"measurement": "TGI", "setting": "MDA-N", "value": 11.6, "unit": "µM"},
      {"measurement": "TGI", "setting": "MOLT-4 leukemia", "value": 3.87, "unit": "µM"},
      {"measurement": "TGI", "setting": "NCI-H226 lung", "value": 30.6, "unit": "µM"},
      {"measurement": "TGI", "setting": "NCI-H23 lung", "value": 10.4, "unit": "µM"},
      {"measurement": "TGI", "setting": "NCI-H460 lung", "value": 36.1, "unit": "µM"},
      {"measurement": "TGI", "setting": "NCI-H522 lung", "value": 1.35, "unit": "µM"},
      {"measurement": "TGI", "setting": "NCI/ADR-RES ovarian", "value": 17.9, "unit": "µM"},
      {"measurement": "TGI", "setting": "OVCAR-5 ovarian", "value": 29.4, "unit": "µM"},
      {"measurement": "TGI", "setting": "OVCAR-8 ovarian", "value": 15.4, "unit": "µM"},
      {"measurement": "TGI", "setting": "PC-3 prostate", "value": 12.5, "unit": "µM"},
      {"measurement": "TGI", "setting": "RPMI-8226 leukemia", "value": 1.95, "unit": "µM"},
      {"measurement": "TGI", "setting": "SF-268 CNS", "value": 42.1, "unit": "µM"},
      {"measurement": "TGI", "setting": "SF-295 CNS", "value": "> 34", "unit": "µM"},
      {"measurement": "TGI", "setting": "SF-539 CNS", "value": 26, "unit": "µM"},
      {"measurement": "TGI", "setting": "SK-MEL-2 melanoma", "value": 5.48, "unit": "µM"},
      {"measurement": "TGI", "setting": "SK-MEL-28 melanoma", "value": 4.44, "unit": "µM"},
      {"measurement": "TGI", "setting": "SK-MEL-5 melanoma", "value": 6.43, "unit": "µM"},
      {"measurement": "TGI", "setting": "SK-OV-3 ovarian", "value": 28.1, "unit": "µM"},
      {"measurement": "TGI", "setting": "SN12C renal", "value": 21.2, "unit": "µM"},
      {"measurement": "TGI", "setting": "SNB-19 CNS", "value": "> 55.5", "unit": "µM"},
      {"measurement": "TGI", "setting": "SNB-75 CNS", "value": 15.4, "unit": "µM"},
      {"measurement": "TGI", "setting": "SR leukemia", "value": 8.97, "unit": "µM"},
      {"measurement": "TGI", "setting": "SW-620 colon", "value": 3.38, "unit": "µM"},
      {"measurement": "TGI", "setting": "T-47D breast", "value": 5.19, "unit": "µM"},
      {"measurement": "TGI", "setting": "TK-10 renal", "value": 3.61, "unit": "µM"},
      {"measurement": "TGI", "setting": "U251 CNS", "value": 30, "unit": "µM"},
      {"measurement": "TGI", "setting": "UACC-257 melanoma", "value": 3.75, "unit": "µM"},
      {"measurement": "TGI", "setting": "UACC-62 melanoma", "value": 7.48, "unit": "µM"},
      {"measurement": "TGI", "setting": "UO-31 renal", "value": 25.9, "unit": "µM"}
    ]}
  ]
}
